Results on one molecule are retold here after patent US20200215016A1, “Ketone Bodies To Protect Tissues From Damage By Ionizing Radiation” (TDELTAS LIMITED, priority 2012, published 2020).

Series [1] relates to Human osteoblast cells (HOS). As to the kind of experiment: Cellular radioprotection of cultured osteoblasts exposed to 60Co gamma radiation. Type of series: cell-based. To be noted: ketone ester administered after radiation. On the procedure: FIG. 1 is a pair of graphs illustrating cellular radioprotection by ketone esters. Human osteoblast cells (HOS) were treated with ketone esters either pre-(left panel) or post-(right panel) ^60Co gamma radiation (0.6 Gy/min). The methods used in the studies of cultured cells were the same as previously reported in Miller A. C. et al., Int. J. of Radiation Biol. 1997, 72: 211-18. The ester composition used was the mono R 3 hydroxybutyryl-R-1,3 butanediol enantiomerically enriched in the 1 position of R-1,3 butanediol. Studies were performed using cultured osteoblasts exposed to gamma radiation with and without (R)-1,3-butanediol ester of (R)-3-hydroxybutyrate as described herein to determine the effect of ketone esters on radiation damage. FIG. 1 is a pair of graphs illustrating cellular radioprotection by ketone esters in which human cultured osteoblast cells were treated pre- or post […] gamma radiation (0.6 Gy/min) with a ketone ester. FIG. 2 illustrates chromosomal protection by ketone esters. FIG. 3 is a pair of graphs illustrating protection against proton radiation after administration of ketones in which human cultured osteoblast cells were treated pre- or post-proton radiation (4 MeV) with a ketone ester. FIG. 4 is a graph illustrating ketone ester stability at pH 7. FIG. 5 is a graph illustrating ketone ester blood metabolite levels. […]

The next series deals with HOS cells. The experiment in a line: Protection of cultured osteoblasts against proton radiation (4 MeV): cell survival and DNA damage. To be noted: ketone treatment prior to proton radiation (4 MeV). Type of series: cell-based, human. On the procedure:
FIG. 3 is a pair of graphs and images illustrating protection against proton radiation after administration of ketones. HOS cells were treated with ketone esters either pre- or post-proton radiation (4 MeV). […] The methods used in the studies of cultured cells were the same as previously reported in Miller A. C. et al., Int. J. of Radiation Biol. 1997, 72: 211-18. The ester composition used was the mono R 3 hydroxybutyryl-R-1,3 butanediol enantiomerically enriched in the 1 position of R-1,3 butanediol. Studies were performed using cultured osteoblasts exposed to gamma radiation with and without (R)-1,3-butanediol ester of (R)-3-hydroxybutyrate as described herein to determine the effect of ketone esters on radiation damage. FIG. 1 is a pair of graphs illustrating cellular radioprotection by ketone esters in which human cultured osteoblast cells were treated pre- or post […] gamma radiation (0.6 Gy/min) with a ketone ester. FIG. 2 illustrates chromosomal protection by ketone esters. FIG. 3 is a pair of graphs illustrating protection against proton radiation after administration of ketones in which human cultured osteoblast cells were treated pre- or post-proton radiation (4 MeV) with a ketone ester. FIG. 4 is a graph illustrating ketone ester stability at pH 7. FIG. 5 is a graph illustrating ketone ester blood metabolite levels. […]

Series [2] in a line: Ketone ester blood metabolite levels / ketosis after administration. Format: in vivo. The settings on record: FIG. 5: 5 grams/kg dose, males. On the procedure: FIG. 5 is a graph illustrating ketone ester blood metabolite levels (5 grams/kg dose, males).
To maintain elevated blood ketone body concentrations over a 24 hour period, delayed release formulations can be used. The release of the (R)-3-hydroxybutyrate derivatives can be controlled by a number of formulation techniques. For example, techniques such as enteric coatings, film coatings, microencapsulation and the like can be used to retard release of the (R)-3-hydroxybutyrate derivatives as is known to those of ordinary skill in the art.

In the case of `C[C@@H](O)CCOC(=O)C[C@@H](C)O` [ketone esters, mono R 3 hydroxybutyryl-R-1,3 butanediol], in series [1], the cell salvage result was “increases cell salvage”. The cell survival result in the series on HOS cells (FIG. 3 left graph) was “increased cell survival”. Also, the DNA damage entry in the series on HOS cells (FIG. 3 right graph) is reported as “mitigated DNA damage”. In addition, in series [2], the generation of ketosis entry is reported as “sustained generation of ketosis over a period of hours”.
